In brackets after ≈: the same amount, converted by molar mass.
Assays:
[1] = system: Staphylococcus aureus UC ® No. 9213; assay: In vitro antimicrobial activity (MIC, agar dilution, Mueller Hinton agar), S. aureus UC 9213; type: cell-based; conditions: UC9213, 35° C., 18 hours, read-out: Minimum inhibitory concentration (MIC), S. a. 9213
Procedure: (§1) Antimicrobial activity was tested in vitro using the procedure described in National Committee for Clinical Laboratory Standards. Methods for dilution antimicrobial susceptibility tests for bacteria that grow aerobically are disclosed in the third edition of Approved Standard, NCCLS Document M7-A3, Villanova, Pa., 1993. Minimum inhibitory concentration (MIC) values were determined by an agar dilution method (1) in which the test medium was Mueller Hinton agar (MHA; Difco Laboratories, Detroit, Mich.) supplemented with 1% Supplement C (Difco). Serial two-fold dilutions of each compound were prepared using 1.0 ml volumes of sterile distilled water. To each 1.0 ml aliquot was added 9.0 ml of molten agar medium. The drug-supplemented agar was mixed, poured into 15×100 mm petri dishes, and allowed to solidify and dry at room temperature prior to inoculation. The test cultures were grown aerobically overnight at 35° C. on MHA; streptococcal strains were grown on Trypticase Soy Blood Agar Base EH (Difco) supplemented with 5% defibrinated sheep blood (BBL, Becton Dickinson Company, Cockeysville, Md.). Colonies were harvested with a sterile swab, and cell suspensions were prepared in Trypticase Soy Broth (TSB; Becton Dickinson Company) to equal the turbidity of a 0.5 McFarland standard. A 1:19 dilution of the suspension was made in TSB; this diluted suspension constituted the inoculum for the assay. The plates containing the drug-supplemented agar were inoculated with a 0.001 ml drop of the cell suspensions using a Steers replicator (Melrose Machine Shop, Woodlyn, Pa.), yielding approximately 10^4 -10^5 cells per spot. The plates were incubated aerobically at 35° C. for 18 hours and the MIC was read as the lowest concentration of drug that inhibited visible growth of the organism. The growth of a single colony was considered to be negative.

[2] = system: Enterococcus faecalis UC ® No. 9217; assay: In vitro antimicrobial activity (MIC, agar dilution, Mueller Hinton agar), E. faecalis UC 9217; type: cell-based; conditions: UC9217, 35° C., 18 hours, read-out: Minimum inhibitory concentration (MIC), E. f. 9217
Procedure: as §1

[3] = system: Streptococcus Pneumoniae UC ® No. 9912; assay: In vitro antimicrobial activity (MIC, agar dilution, Mueller Hinton agar), S. pneumoniae UC 9912; type: cell-based; conditions: UC9912, 35° C., 18 hours, read-out: Minimum inhibitory concentration (MIC), S. p. 9912
Procedure: as §1

[4] = system: S, aureus UC ® No. 9213; conditions: Antimicrob. Agents Chemother. 1996 and ICAAC 1995 posters; cited from earlier work

Row | Compound | MIC [1] [µg/mL] | MIC [2] [µg/mL] | MIC [3] [µg/mL] | potency of U-100592 versus vancomycin in this animal model [4]
1 | COc1ccc(-c2ccc(C3=NOC(CNC(C)=O)C3)cc2)ccc1=O (racemic) [Example 1, N-[[4,5-Dihydro-3-[4-(4-methoxy-5-oxo-1,3,6-cycloheptatrien-1-yl)phenyl]-5-isoxazolyl]methyl]acetamide] | 4 (≈ 11.4 µM) | 4 (≈ 11.4 µM) | 1 (≈ 2.84 µM) | 
2 | CC(=O)NCC1CC(c2ccc(C3=CCN(C(=O)CO)CC3)cc2)=NO1 (stereo not shown) [Example 4, N-[[4,5-Dihydro-3-[4-[1,2,3,6-tetrahydro-1-(hydroxyacetyl)-4-pyridinyl]phenyl]-5-isoxazolyl]methyl]acetamide] | 4 (≈ 11.2 µM) | 8 (≈ 22.4 µM) | 2 (≈ 5.6 µM) | 
3 | CC(=O)NC[C@H]1CC(c2ccc(-c3ccncc3)cc2)=NO1 [Example 8, (R)-N-[[4,5-Dihydro-3-[4-(4-pyridinyl)phenyl]-5-isoxazolyl]methyl]acetamide] | 1 (≈ 3.39 µM) | 2 (≈ 6.77 µM) | 0.25 (≈ 0.846 µM) | 
4 | CC(=O)NC[C@H]1CN(c2ccc(N3CCN(C(=O)CO)CC3)c(F)c2)C(=O)O1 [Example U-100592] |  |  |  | equipotent to vancomycin

More lines, in order of falling MIC [1], values ahead:

Row | MIC [1] [µg/mL] | MIC [2] [µg/mL] | MIC [3] [µg/mL] | Compound | potency of U-100592 versus vancomycin in this animal model [4]
5 | 16 (≈ 44.8 µM) | 16 (≈ 44.8 µM) | 4 (≈ 11.2 µM) | COC(=O)N1CC=C(c2ccc(C3=NOC(CNC(C)=O)C3)cc2)CC1 (stereo not shown) [Example 6, Methyl 4-[4-[5-[(acetylamino)methyl]-4,5-dihydro-3-isoxazolyl]phenyl]-3,6-dihydro-1(2H)-pyridinecarboxylate] | 
6 | 8 (≈ 23.4 µM) | 16 (≈ 46.9 µM) | 2 (≈ 5.86 µM) | CC(=O)NCC1CC(c2ccc(C3=CCN(C(C)=O)CC3)cc2)=NO1 (stereo not shown) [Example 7, N-[[4,5-Dihydro-3-[4-[1,2,3,6-tetrahydro-1-(acetyl)-4-pyridinyl]phenyl]-5-isoxazolyl]methyl]acetamide] | 
7 | 2 (≈ 5.6 µM) | 4 (≈ 11.2 µM) | 0.5 (≈ 1.4 µM) | CC(=O)NC[C@H]1CC(c2ccc(C3=CCN(C(=O)CO)CC3)cc2)=NO1 [Example 5, (R)-N-[[4,5-Dihydro-3-[4-[1,2,3,6-tetrahydro-1-(hydroxyacetyl)-4-pyridinyl]phenyl]-5-isoxazolyl]methyl]acetamide] | 

Source: patent US5990136A, “Isoxazoline derivatives useful as antimicrobials” (Pharmacia & Upjohn Company, priority 1997, dated 1999)
